# Experiment: gradient 5% acetonitrile 3 min, to 50% in 2 min, to 85% in 15 min, held 3 min, 100 µL/min
# Details: column: Zorbax Extend-C18 2.1 x 50 mm; eluents: water / acetonitrile, 0.1% formic acid
# How it was run: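 Values are retention times taken from adduct peaks that software picked and an analyst inspected. The pure standards were run as mixtures of ~100 molecules on HPLC linked to a quadrupole time-of-flight mass spectrometer, in positive and negative ionization mode. A Zorbax Extend-C18 column (2.1 × 50 mm, 1.8 μm) was used at 100 μL/min with water and acetonitrile, each including 0.1% formic acid.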
row,Structure (SMILES),RP-LC retention time
1,CNS(=O)(=O)c1cc(-c2nnc(-c3ccccc3)o2)ccc1OC,786 s
2,COC(=O)c1ncn2c1C(=O)N(c1cc(C)cc(C)c1)C(C)(C(=O)NC1CCCC1)C2 (stereo unspecified),734 s
3,Cc1nc(CC(=O)NC(C)c2ccccc2)sc1C(=O)NCC(C)C (stereo unspecified),763 s
4,CC1(C(=O)NCc2ccc(F)cc2)Cn2cnc(C(=O)N3CCOCC3)c2C(=O)N1C1CC1 (stereo unspecified),616 s
5,O=C(Nc1nc(-c2ccc(Cl)cc2)cs1)c1ccc2c(c1)OCO2,1110 s
6,Cc1ccc(CN2C[C@@H](CO)[C@H](c3ccccn3)C2)nc1,559 s
7,Cn1c(=O)sc2cc(S(=O)(=O)N3CCC(C(=O)Nc4ccc(F)c(Cl)c4)CC3)ccc21,938 s
8,Cc1cc(N)n(-c2nc(C)nc3sc4c(c23)CCC(C)C4)n1 (stereo unspecified),857 s
9,CCCN(CCC)S(=O)(=O)c1ccc(C(=O)Nc2nc3c(s2)CCc2ccccc2-3)cc1,1310 s
10,Cc1cnc(C(=O)N2CCC(N3CC(OCC4CC4)C34CCOCC4)CC2)cn1 (stereo unspecified),586 s
11,O=[N+]([O-])c1cc(O)c(O)c([N+](=O)[O-])c1,730 s
12,Cc1nc2cccnc2n1C1CCN(C(=O)C2CCCCC2)C1 (stereo unspecified),591 s
13,COc1ccc(NC(=O)c2sc(N3CCCC3=O)nc2C)cc1Cl,809 s
14,COC(=O)c1ccc(Cl)cc1NC(=O)COc1nc(C)nc2ccccc12,920 s
15,CC(C)n1c(=O)c2ccccc2n(Cc2nc(-c3cccc(Cl)c3)no2)c1=O,1190 s
16,CCOc1ccc(NC(=O)Nc2cc(C(C)C)c(O)cc2C)cc1,909 s
17,CCCn1cc(S(=O)(=O)Nc2ccc(C#N)cc2)c2cccnc21,844 s
18,COc1ccc(CC(=O)N2CCc3c(c(CO)nn3CC3CC3)C2)cc1,715 s
19,CC(C)CCNC(=O)c1ccc2c(c1)NC(=O)C1CCCCN21 (stereo unspecified),813 s

row,Structure (SMILES),RP-LC retention time
1,Cc1ccc(CNC(=O)CCc2nc3c(C)cccc3c(=O)n2C)cc1C,892 s
2,Cc1cc(C)cc(NC(=O)Cn2ncc3c(c2=O)N(C2CC2)C(=O)CS3)c1,797 s
3,CCOc1ccccc1NC(=O)N1CCN(c2cc(C)nc(N3CCOCC3)n2)CC1,631 s
4,Cc1noc(C)c1CN1CCN(C(=O)c2nc3ccccc3s2)CC1,574 s
5,CN1CCCCCCN(C(=O)Cn2c(=O)oc3ccccc32)[C@H]2CCC[C@H]2C1=O,830 s
6,COC(=O)c1ccc(C(=O)Nc2ccc(CC(=O)NC3CC3)cc2)cc1,657 s
7,CSc1nnc(-c2nn(C)c3c2CN(C(=O)c2ccc(C)cc2)CC3)n1C,716 s
8,COC(=O)C1=CN(c2ccc(OC)cc2)c2cc(F)ccc2S1(=O)=O,844 s
9,CCCc1ccc(S(=O)(=O)N2CCc3c(c(-c4nnc(SCC)n4CC)nn3C)C2)cc1,1090 s
10,Cc1cccc(-c2noc(C3CCCN3C(=O)NC3CCCC3)n2)c1 (stereo unspecified),955 s
11,COC(=O)C1=CN(c2cccc(OC)c2)c2ccccc2S1(=O)=O,776 s
12,CC(C)c1ccc(Nc2c(-c3cc(Br)ccc3O)nc3ncccn23)cc1,1190 s
13,CCCN(CC(=O)N(Cc1ccco1)CC1CCCO1)C(=O)c1ccccc1OC (stereo unspecified),870 s
14,CSc1ccc(-c2nc3cnccn3c2Nc2ccc(C)cc2Br)cc1,1140 s
15,CCOc1cc(-c2ccc(F)cc2)nc2ccc(NS(=O)(=O)c3cccc(C#N)c3)cc12,816 s
16,CCCCC(=O)N(C)CC1CCOCC1,686 s
17,CCOC(=O)c1ccccc1NC(=O)Cn1c(=O)n(CC)c(=O)c2c1cc(C)n2C,978 s
18,COc1ccc(-c2noc(Cc3nnc(-c4ccc(F)cc4)o3)n2)cc1,972 s
19,CCCCS(=O)(=O)N1CCCC(c2nnc(C)s2)C1 (stereo unspecified),689 s

# The remaining lines, values ahead:
row,RP-LC retention time,Structure (SMILES)
1,639 s,CC(NC(=O)C1=CCN(Cc2ccccc2)CC1)c1ccccc1 (stereo unspecified)
2,710 s,CCc1ccc(NC(=O)Cn2c(CC)nc3c(c2=O)CN(Cc2ccccc2)CC3)cc1
3,945 s,Cc1ccc(NC(=O)C2CCN(S(C)(=O)=O)c3ccccc3O2)cc1C (stereo unspecified)
4,1130 s,CN(C)c1nc2cc(C(=O)NCc3ccncc3)sc2n1-c1ccccc1
5,711 s,COc1ccccc1NC(=O)N1CCCC1c1nncn1-c1ccccc1 (stereo unspecified)
6,738 s,Cc1ccc(CNC(=O)C2CCN(S(=O)(=O)c3ccc4[nH]c(=O)ccc4c3)CC2)cc1
7,1120 s,O=C(Cn1nc2c(SC3CCCCC3)nccn2c1=O)Nc1ccc(Br)cc1
8,858 s,Cn1ncc2c(N3CCCC3)nc(C(=O)NCc3ccc(Cl)cc3)nc21
9,568 s,O=C(NCCc1c[nH]c2ccccc12)C1CCCN(c2ccc(-n3ccnc3)nn2)C1 (stereo unspecified)
10,605 s,O=C(Cn1ncn2c(cc3cc(F)ccc32)c1=O)N1CCN(c2ccccn2)CC1
11,857 s,O=C(NCc1ccc2c(c1)OCO2)C1CCCN(c2ccc(=O)n(-c3cccc(Cl)c3)n2)C1 (stereo unspecified)
12,882 s,CCC(=O)N1CCc2c([nH]c3ccccc23)C12C(=O)Nc1ccc(Br)cc12 (stereo unspecified)
13,1120 s,Fc1ccc(C2Cn3nnc(-c4nc(-c5ccccc5)no4)c3CO2)cc1 (stereo unspecified)
14,905 s,O=C(CN1C(=O)CCCc2cc(S(=O)(=O)N3CCCCCC3)ccc21)NCc1ccccc1
15,899 s,COc1ccc(C2(CNC(=O)C(=O)NCC3COc4ccccc4O3)CCOCC2)cc1 (stereo unspecified)
16,950 s,Cc1ccc(NC(=O)CSc2nccc(N3CCN(c4cc(C)ccc4C)CC3)n2)cc1
17,781 s,O=C(NCC(O)c1cccc2ccccc12)NC1CCCCC1 (stereo unspecified)
18,914 s,O=C(c1ccccc1F)N1CCN(C(=O)c2nnn3c2COC(c2ccc(Cl)cc2)C3)CC1 (stereo unspecified)
19,900 s,CC1CCCCN1S(=O)(=O)c1ccc2c(c1)CCC(=O)N2CC(=O)NCCc1ccccc1 (stereo unspecified)
20,772 s,CCN1C(=O)c2cccnc2Sc2cc(CNC(=O)c3ccccc3OC)ccc21
21,955 s,Cc1ccccc1S(=O)(=O)N1CCc2c(c(-c3nnc(-c4ccc(F)cc4)o3)nn2C)C1
22,784 s,Cc1ccc(N2CCCS2(=O)=O)cc1NS(=O)(=O)CCc1ccccc1
23,714 s,O=C(NC1CCN(c2cc(-c3ccc(F)cc3)[nH]n2)C1)c1ccc2cc[nH]c2c1 (stereo unspecified)
24,775 s,Cc1c(Cl)cccc1S(=O)(=O)Nc1ccc(Cn2cncn2)cc1
25,589 s,Cc1nn(CCCC(=O)N2CCN(c3ccccn3)CC2)c(=O)c2cc3occc3n12
26,873 s,O=C(CCCn1nnc2cc(S(=O)(=O)N3CCCC3)ccc21)N1CCCc2ccccc21
27,1090 s,CCc1nc(-c2csc(S(=O)(=O)N3CCCC(C(=O)Nc4cc(F)ccc4F)C3)c2)no1 (stereo unspecified)
28,1230 s,O=C(c1nnc(-c2ccc(S(=O)(=O)N3CCCCC3)cc2)o1)N1CCC(Cc2ccccc2)CC1

# From the METLIN SMRT retention time set (Domingo-Almenara et al. 2019)
